We go through ten compounds from ChEMBL document CHEMBL5444388, “Affinity Phenotypic Cellular Literature for EUbOPEN Chemogenomic Library” (2024).

Experiment [1] deals with Cyclin-dependent kinase 13 (Homo sapiens, UniProt Q14004). Put plainly: Affinity Phenotypic Cellular interaction: (In-Cell western blot (using MDA-MB-231 cells)) EUB0001632a CDK13. The format is functional, cell-based. The arrangement: mode of action Inhibitor, recommended concentration 1 uM.
The target of experiment [2] is Activin receptor type-1 (Homo sapiens, UniProt Q04771). Put plainly: Affinity Phenotypic Cellular interaction: (Western Blot (inhibition of ALK2 catalysed phosphorylation of SMAD1/5/8, BMP branch signalling)) EUB0001184b ACVRL1. Also noted: mode of action Inhibitor, recommended concentration 1 uM. It counts as functional.
The target in experiment [3] is KiSS-1 receptor (Homo sapiens, UniProt Q969F8). The experiment in a line: Affinity Phenotypic Cellular interaction: (Agonist activity for hGPR54 (C-terminal ethyl amide)) EUB0001072a KISS1R. The arrangement: mode of action Negative control for KISS1-305, recommended concentration 1 uM. The format is functional.
Experiment [4] deals with T1, Casein kinase I isoform delta (Homo sapiens, UniProt P48730). Put plainly: Affinity Phenotypic Cellular interaction: (Western Blot assay (inhibition of CSNK1D/E-mediated phosphorylation of DVL3, analyzed by change in phosphorylation-dependent mobility shift)) EUB0001205a CSNK1D. The format is functional. The arrangement: mode of action Inhibitor, recommended concentration 1 uM.

For experiment [5], the target named is T1, Casein kinase I isoform delta. It counts as functional.
Experiment [6] concerns the target T2, Casein kinase I isoform alpha (Homo sapiens, UniProt P48729). The format is functional.
In experiment [7] the target is T2, Casein kinase I isoform alpha. Put plainly: Affinity Phenotypic Cellular interaction: (Western Blot assay (inhibition of CSNK1D/E-mediated phosphorylation of DVL3, analyzed by change in phosphorylation-dependent mobility shift)) EUB0001205a CSNK1A1. The format is functional. Also noted: mode of action Inhibitor, recommended concentration 1 uM.
Experiment [8] addresses T3, Casein kinase I isoform epsilon (Homo sapiens, UniProt P49674). The experiment in a line: Affinity Phenotypic Cellular interaction: (Western Blot assay (inhibition of CSNK1D/E-mediated phosphorylation of DVL3, analyzed by change in phosphorylation-dependent mobility shift)) EUB0001205a CSNK1E. The format is functional. The arrangement: mode of action Inhibitor, recommended concentration 1 uM.

Experiment [9] has as its target T3, Casein kinase I isoform epsilon. It counts as functional.
In experiment [10] the target is T2, Casein kinase I isoform alpha. It counts as functional, cell-based, T-REx-293.
Experiment [11] addresses T4, Cyclin-dependent kinase 8 (Homo sapiens, UniProt P49336). The experiment in a line: Affinity Phenotypic Cellular interaction: (Reporter-based luciferase assay (in LS174T cell line (xcexb2-catenin mutant) bearing activating WNT-pathway mutations)) EUB0001623a CDK8. It counts as functional. Also noted: mode of action Inhibitor, recommended concentration 100 nM.
In experiment [12] the target is T4, Cyclin-dependent kinase 8. Put plainly: Affinity Phenotypic Cellular interaction: (Reporter-based luciferase assay (in PA-1 cell line bearing activating WNT-pathway mutations)) EUB0001623a CDK8. It counts as functional. Also noted: mode of action Inhibitor, recommended concentration 100 nM.
The target in experiment [13] is T4, Cyclin-dependent kinase 8. The experiment in a line: Affinity Phenotypic Cellular interaction: (Reporter-based luciferase assay (in COLO205 (APC mutant) bearing activating WNT-pathway mutations)) EUB0001623a CDK8. It counts as functional, cell-based. Also noted: mode of action Inhibitor, recommended concentration 100 nM. The settings on record: colo 205.
The target of experiment [14] is Inhibitor of nuclear factor kappa-B kinase subunit beta (Homo sapiens, UniProt O14920). The experiment in a line: Affinity Phenotypic Cellular interaction: (Inhibition of expression of ICAM-1 in HeLa cells) EUB0001492b IKBKB. The arrangement: mode of action Inhibitor, recommended concentration 1 uM. The format is functional, cell-based.
Experiment [15] addresses Mitotic checkpoint serine/threonine-protein kinase BUB1 (Homo sapiens, UniProt O43683). It counts as functional, cell-based, HeLa.
Experiment [16] addresses Interleukin-1 receptor-associated kinase 4 (Homo sapiens, UniProt Q9NWZ3). Put plainly: Affinity Phenotypic Cellular interaction: (R848-induced IL-6 production in human whole blood) EUB0001558a IRAK4. The arrangement: mode of action Inhibitor, recommended concentration 1 uM. It counts as functional, tissue-based.
For experiment [17], the target named is T5, RAF proto-oncogene serine/threonine-protein kinase (Homo sapiens, UniProt P04049). The experiment in a line: Affinity Phenotypic Cellular interaction: (Western blot assay (phosphorylation of ERK in HCT-116 cells expressing BRAF wt/K-Ras2(G13D))) EUB0000655a RAF1. The format is functional, cell-based. The arrangement: mode of action Inhibitor, recommended concentration 1 uM.

Experiment [18] deals with T5, RAF proto-oncogene serine/threonine-protein kinase. Put plainly: Affinity Phenotypic Cellular interaction: (Western blot assay (phosphorylation of ERK in A375P cells expressing BRAF V600E/RAS wt)) EUB0000655a RAF1. Also noted: mode of action Inhibitor, recommended concentration 1 uM. The format is functional, cell-based.
Experiment [19] has the same target. The experiment in a line: Affinity Phenotypic Cellular interaction: (Western blot assay (phosphorylation of ERK in MALME-3M cells expressing BRAF V600E/RAS wt)) EUB0000655a RAF1. It counts as functional, cell-based. The arrangement: mode of action Inhibitor, recommended concentration 1 uM.
Experiment [20] has the same target. The experiment in a line: Affinity Phenotypic Cellular interaction: (Western blot assay (phosphorylation of ERK in HFF cells expressing BRAF/RAS wt)) EUB0000655a RAF1. It counts as functional, cell-based. Also noted: mode of action Inhibitor, recommended concentration 1 uM.
Experiment [21] has the same target. The experiment in a line: Affinity Phenotypic Cellular interaction: (Western blot assay (phosphorylation of ERK in HT-29 cells expressing BRAF V600E/RAS wt)) EUB0000655a RAF1. The arrangement: mode of action Inhibitor, recommended concentration 1 uM. It counts as functional, cell-based.
The target is the same in experiment [22]. The experiment in a line: Affinity Phenotypic Cellular interaction: (Western blot assay (phosphorylation of ERK in […] cells expressing BRAF V600E/RAS wt)) EUB0000655a RAF1. The format is functional, cell-based, COLO 205. Also noted: mode of action Inhibitor, recommended concentration 1 uM.
The target is the same in experiment [23]. Put plainly: Affinity Phenotypic Cellular interaction: (Western blot assay (phosphorylation of ERK in SKMEL2 cells expressing BRAF wt/N-Ras2(Q61R))) EUB0000655a RAF1. Also noted: mode of action Inhibitor, recommended concentration 1 uM. The format is functional, cell-based, SK-MEL-2.
For experiment [24] the target is unchanged. Put plainly: Affinity Phenotypic Cellular interaction: (Western blot assay (phosphorylation of ERK in HT-1080 cells expressing BRAF wt/N-Ras2(Q61K))) EUB0000655a RAF1. The format is functional, cell-based. The arrangement: mode of action Inhibitor, recommended concentration 1 uM.
Experiment [25] has the same target. Put plainly: Affinity Phenotypic Cellular interaction: (Western blot assay (phosphorylation of ERK in PREC cells expressing BRAF/RAS wt)) EUB0000655a RAF1. It counts as functional, cell-based. The arrangement: mode of action Inhibitor, recommended concentration 1 uM.
The target is the same in experiment [26]. The experiment in a line: Affinity Phenotypic Cellular interaction: (Western blot assay (phosphorylation of ERK in HMEC cells expressing BRAF/RAS wt)) EUB0000655a RAF1. The format is functional, cell-based. The arrangement: mode of action Inhibitor, recommended concentration 1 uM.
The target in experiment [27] is T6, Leucine-rich repeat serine/threonine-protein kinase 2 (Homo sapiens, UniProt Q5S007, G2019S). The format is functional, subcellular, Brain, lysate.
Experiment [28] addresses T6, Leucine-rich repeat serine/threonine-protein kinase 2. It counts as functional, subcellular, Brain, lysate. This is another data set of the same source.

Structures are written as SMILES. Where a SMILES comes first, the peptide text is derived from it. [ ]: non-standard residue; d: D form. Arg(Me) = CNC(=N)NCCC[C@H](N)C(=O)O; d3Pal = N[C@H](Cc1cccnc1)C(=O)O; azaGly = NNC(=O)O A value given as a limit tells only on which side of the number the result lay.

T5 sequence (P04049 whole entry): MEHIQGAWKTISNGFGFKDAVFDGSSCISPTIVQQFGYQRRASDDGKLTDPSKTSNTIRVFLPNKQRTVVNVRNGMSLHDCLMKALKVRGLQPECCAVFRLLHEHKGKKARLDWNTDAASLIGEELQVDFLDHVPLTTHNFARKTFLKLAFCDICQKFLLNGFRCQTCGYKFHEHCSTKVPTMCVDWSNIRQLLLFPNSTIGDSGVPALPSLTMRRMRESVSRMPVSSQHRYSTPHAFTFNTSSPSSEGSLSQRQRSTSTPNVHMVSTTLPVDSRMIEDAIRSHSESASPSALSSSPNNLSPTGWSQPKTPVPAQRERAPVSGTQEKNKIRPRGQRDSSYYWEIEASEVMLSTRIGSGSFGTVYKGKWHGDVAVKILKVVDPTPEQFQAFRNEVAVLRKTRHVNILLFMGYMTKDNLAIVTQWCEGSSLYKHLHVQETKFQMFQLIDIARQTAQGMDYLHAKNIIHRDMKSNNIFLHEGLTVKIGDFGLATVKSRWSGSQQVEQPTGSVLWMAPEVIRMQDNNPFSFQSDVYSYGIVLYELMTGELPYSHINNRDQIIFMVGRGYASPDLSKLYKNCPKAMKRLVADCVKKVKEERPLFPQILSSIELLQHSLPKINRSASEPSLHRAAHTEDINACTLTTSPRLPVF
T2 sequence (P48729 whole entry, canonical isoform): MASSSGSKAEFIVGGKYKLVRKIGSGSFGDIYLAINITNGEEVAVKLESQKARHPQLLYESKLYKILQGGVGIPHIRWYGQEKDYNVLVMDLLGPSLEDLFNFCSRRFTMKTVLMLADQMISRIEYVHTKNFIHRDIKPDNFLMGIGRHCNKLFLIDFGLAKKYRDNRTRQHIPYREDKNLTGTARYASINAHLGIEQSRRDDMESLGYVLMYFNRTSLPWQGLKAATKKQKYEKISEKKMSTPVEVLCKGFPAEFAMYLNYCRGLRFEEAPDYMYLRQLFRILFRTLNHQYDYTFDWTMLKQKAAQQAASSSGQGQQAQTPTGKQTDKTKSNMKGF
T4 sequence (P49336 whole entry, looked up, change not shown): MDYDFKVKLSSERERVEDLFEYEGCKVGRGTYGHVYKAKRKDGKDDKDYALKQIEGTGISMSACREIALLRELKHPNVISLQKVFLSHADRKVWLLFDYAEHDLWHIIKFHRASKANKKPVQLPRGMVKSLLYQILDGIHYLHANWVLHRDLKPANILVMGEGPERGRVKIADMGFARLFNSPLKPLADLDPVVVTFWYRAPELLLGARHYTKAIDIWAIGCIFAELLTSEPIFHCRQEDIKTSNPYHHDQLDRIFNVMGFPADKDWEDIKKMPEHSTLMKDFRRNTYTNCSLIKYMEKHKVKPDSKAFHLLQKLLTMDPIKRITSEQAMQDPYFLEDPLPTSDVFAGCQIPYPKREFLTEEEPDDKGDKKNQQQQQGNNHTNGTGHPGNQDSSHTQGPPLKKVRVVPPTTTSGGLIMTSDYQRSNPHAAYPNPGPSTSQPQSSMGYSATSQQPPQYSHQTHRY
T1 sequence (P48730 whole entry, canonical isoform): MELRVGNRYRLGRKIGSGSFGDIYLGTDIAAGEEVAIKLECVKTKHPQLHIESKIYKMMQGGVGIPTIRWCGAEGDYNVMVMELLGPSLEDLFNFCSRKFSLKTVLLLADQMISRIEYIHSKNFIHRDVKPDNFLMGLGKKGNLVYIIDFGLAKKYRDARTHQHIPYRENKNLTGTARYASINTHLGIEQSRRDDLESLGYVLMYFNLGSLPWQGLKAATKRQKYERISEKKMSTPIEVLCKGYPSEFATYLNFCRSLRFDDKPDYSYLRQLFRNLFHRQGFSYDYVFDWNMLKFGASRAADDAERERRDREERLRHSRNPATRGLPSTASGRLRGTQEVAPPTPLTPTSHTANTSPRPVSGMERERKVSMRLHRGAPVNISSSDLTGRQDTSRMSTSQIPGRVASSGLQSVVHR
T3 sequence (P49674 whole entry, canonical isoform): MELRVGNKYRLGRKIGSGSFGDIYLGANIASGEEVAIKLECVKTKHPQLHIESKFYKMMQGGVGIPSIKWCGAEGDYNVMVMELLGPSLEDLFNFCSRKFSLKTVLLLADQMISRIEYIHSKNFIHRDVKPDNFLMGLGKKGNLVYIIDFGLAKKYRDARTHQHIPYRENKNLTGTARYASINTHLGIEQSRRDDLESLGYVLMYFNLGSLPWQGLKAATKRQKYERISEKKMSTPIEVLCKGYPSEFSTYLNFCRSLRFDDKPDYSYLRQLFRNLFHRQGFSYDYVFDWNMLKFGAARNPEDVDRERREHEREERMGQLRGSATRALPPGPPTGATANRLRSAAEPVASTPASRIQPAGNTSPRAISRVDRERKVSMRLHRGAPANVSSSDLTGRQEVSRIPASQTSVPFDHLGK
T6 sequence (Q5S007 whole entry G2019S): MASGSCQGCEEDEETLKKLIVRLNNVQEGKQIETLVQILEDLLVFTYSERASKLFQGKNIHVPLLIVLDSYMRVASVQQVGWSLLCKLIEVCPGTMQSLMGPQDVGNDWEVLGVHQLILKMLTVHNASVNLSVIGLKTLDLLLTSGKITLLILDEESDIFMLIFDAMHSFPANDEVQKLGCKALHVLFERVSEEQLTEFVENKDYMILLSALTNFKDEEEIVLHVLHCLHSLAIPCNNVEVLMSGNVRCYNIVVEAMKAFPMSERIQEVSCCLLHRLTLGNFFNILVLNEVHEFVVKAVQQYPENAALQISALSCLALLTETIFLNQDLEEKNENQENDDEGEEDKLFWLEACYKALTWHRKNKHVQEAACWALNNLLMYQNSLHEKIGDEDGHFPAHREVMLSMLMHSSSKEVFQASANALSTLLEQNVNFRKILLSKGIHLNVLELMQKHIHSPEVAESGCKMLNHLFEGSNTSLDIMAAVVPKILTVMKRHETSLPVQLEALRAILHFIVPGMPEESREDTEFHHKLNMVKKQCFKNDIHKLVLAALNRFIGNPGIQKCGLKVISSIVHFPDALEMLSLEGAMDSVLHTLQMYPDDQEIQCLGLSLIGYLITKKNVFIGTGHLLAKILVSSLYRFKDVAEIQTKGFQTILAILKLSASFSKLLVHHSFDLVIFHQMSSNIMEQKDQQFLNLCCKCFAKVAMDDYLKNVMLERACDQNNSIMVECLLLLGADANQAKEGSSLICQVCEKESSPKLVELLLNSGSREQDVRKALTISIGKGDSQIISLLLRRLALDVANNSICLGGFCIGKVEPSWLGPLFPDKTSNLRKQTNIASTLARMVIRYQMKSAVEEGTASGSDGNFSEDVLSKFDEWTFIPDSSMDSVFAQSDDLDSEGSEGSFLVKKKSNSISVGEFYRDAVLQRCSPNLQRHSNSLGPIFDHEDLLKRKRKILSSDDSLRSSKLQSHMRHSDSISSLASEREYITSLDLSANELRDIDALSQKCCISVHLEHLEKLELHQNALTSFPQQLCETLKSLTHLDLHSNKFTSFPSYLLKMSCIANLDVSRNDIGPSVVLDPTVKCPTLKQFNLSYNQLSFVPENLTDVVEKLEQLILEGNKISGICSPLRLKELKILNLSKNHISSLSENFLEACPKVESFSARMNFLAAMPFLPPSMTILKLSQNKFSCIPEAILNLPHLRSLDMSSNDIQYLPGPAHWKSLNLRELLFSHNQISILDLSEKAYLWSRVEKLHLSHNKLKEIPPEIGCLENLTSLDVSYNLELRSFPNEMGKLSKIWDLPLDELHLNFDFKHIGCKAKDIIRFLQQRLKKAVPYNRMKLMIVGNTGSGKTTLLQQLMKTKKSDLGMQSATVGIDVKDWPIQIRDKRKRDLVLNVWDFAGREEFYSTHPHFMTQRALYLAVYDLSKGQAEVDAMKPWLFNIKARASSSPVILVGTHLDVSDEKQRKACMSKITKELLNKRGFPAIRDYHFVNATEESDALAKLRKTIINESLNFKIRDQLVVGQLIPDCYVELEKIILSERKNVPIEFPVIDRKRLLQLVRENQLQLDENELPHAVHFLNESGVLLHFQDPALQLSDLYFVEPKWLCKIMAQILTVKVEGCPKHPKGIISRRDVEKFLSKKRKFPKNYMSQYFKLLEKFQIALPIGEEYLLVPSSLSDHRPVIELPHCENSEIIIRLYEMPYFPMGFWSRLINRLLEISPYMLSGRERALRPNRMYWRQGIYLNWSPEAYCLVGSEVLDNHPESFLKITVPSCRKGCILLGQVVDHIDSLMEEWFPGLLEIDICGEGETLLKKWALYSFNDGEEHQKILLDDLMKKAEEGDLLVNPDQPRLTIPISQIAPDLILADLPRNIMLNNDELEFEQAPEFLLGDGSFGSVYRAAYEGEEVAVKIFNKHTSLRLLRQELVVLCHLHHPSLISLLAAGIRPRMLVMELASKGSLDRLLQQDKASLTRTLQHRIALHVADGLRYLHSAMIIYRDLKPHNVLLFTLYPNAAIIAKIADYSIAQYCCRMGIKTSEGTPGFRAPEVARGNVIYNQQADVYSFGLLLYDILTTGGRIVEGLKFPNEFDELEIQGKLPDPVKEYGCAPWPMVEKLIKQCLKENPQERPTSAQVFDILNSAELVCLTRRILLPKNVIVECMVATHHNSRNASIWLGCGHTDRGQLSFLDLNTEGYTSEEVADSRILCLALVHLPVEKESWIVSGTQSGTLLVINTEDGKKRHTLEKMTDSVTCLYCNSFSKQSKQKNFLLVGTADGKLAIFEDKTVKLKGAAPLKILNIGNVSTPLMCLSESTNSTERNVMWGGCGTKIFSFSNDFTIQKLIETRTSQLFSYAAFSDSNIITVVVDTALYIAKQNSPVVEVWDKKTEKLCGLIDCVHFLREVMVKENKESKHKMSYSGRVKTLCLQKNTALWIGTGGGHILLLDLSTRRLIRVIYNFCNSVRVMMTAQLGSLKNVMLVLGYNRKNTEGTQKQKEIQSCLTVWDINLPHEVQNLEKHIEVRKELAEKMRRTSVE

In experiment [1], `Cn1cc(-n2cnc3c(NCc4nc5cc(Cl)c(Cl)cc5[nH]4)nc(N4CCOCC4)nc32)cn1` showed an EC50 of 105 nM.
For the compound `COc1cc(-c2cncc(-c3ccc(N4CCN(C(C)C)CC4)cc3)c2C)cc(F)c1C(N)=O`, the concentration giving a half-maximal response (EC50) in [2] was < 100 nM.
For the compound `CNC(=N)NCCC[C@H](NC(=O)[C@H](CC(C)C)NC(=O)NNC(=O)[C@H](Cc1ccccc1)NC(=O)[C@H](CO)NC(=O)[C@H](CC(N)=O)NC(=O)[C@@H](Cc1cccnc1)NC(=O)[C@H](N)Cc1ccc(O)cc1)C(=O)NCC(N)=O` [KISS1-543] (H-[dY][d3Pal]NSF[azaGly]L[Arg(Me)]G-NH2), the half-maximal effective concentration (EC50) in experiment [3] was > 10000 nM.
Turning to `CN1CCC(F)(Cn2cnc(-c3ccc(F)cn3)c2-c2ccnc3[nH]ccc23)CC1`, the 50% effective concentration (EC50) in [4], in [7] and in [8] was 200 nM throughout. The half-inhibitory concentration (IC50) in experiment [5] is 1600 nM; in experiment [6] it was 1600 nM; in experiment [9] it was 1600 nM; in [10], 10500 nM.
With `Cc1n[nH]c2ncc(C(=O)N3CCC[C@H]3c3ccc(Cl)cc3)cc12`, the IC50 in experiment [11] was 32000 nM; in [12], 52 nM; in experiment [13], 9 nM.
`CCC(F)(F)c1cc(N2CCC(S(C)(=O)=O)CC2)nc2sc(C(N)=O)c(N)c12` [BI-605906] yielded an EC50 in experiment [14] of 700 nM.
As for `COc1cnccc1Nc1nc(-c2nn(Cc3c(F)cc(OCCO)cc3F)c3ccccc23)ncc1OC`, the IC50 in [15] is > 10 nM.
With `CC(C)(O)[C@H](F)CN1Cc2cc(NC(=O)c3cnn4cccnc34)c(N3CCOCC3)cc2C1=O`, in experiment [16], 190 nM corresponded to half-maximal inhibition (IC50).
`CN(C)CCOc1ccc(-c2nc(-c3ccncc3)c(-c3ccc4c(c3)CC/C4=N\O)[nH]2)cc1` [SB590885]: the IC50 in experiment [17] worked out at 1100 nM; in [18] it was 290 nM; in experiment [19], 190 nM; in experiment [20], 11000 nM; in experiment [21] it was 58 nM; in [22], 28 nM. Moreover, the 50% inhibitory concentration (IC50) in experiment [23] is 1500 nM; in experiment [24] it was > 13000 nM; in experiment [25] it was 6100 nM; in experiment [26] it was 5100 nM.
For the compound `N#Cc1cccc(-c2c[nH]c3ncnc(N4CCOCC4)c23)c1`, the IC50 in experiment [27] turned out to be 21 nM; in [28], 103 nM.
